Structures can show the parent of a compound that is named as a salt. Where two headings read alike, the source gives them in different places.
Experiments:
scn1lab mutant zebrafish = assay: locomotion (mean swim velocity) seizure-like behaviour assay in scn1lab mutant zebrafish larvae; format: in vivo, Danio rerio; conditions: for change in vivo at 100 µM / change in vivo at 250 µM: Danio rerio; for effect on seizure-like swim behaviour, commercially available compounds: three concentrations; for effect on seizure-like swim behaviour, commercially available compounds / effect on seizure-like swim behaviour, retest of independently synthesized compound: 30 and 90 min exposure; for effect on seizure-like swim behaviour, initial library screen: 100 µM or 250 µM, UCSF-synthesized compound; for effect on seizure-like swim behaviour, retest of independently synthesized compound: 10, 50, 100 and 250 µM
Description: (§1) For locomotion studies, zebrafish larvae (5 days post-fertilization) were placed into a single well of a clear flat-bottomed 96-well microplate containing embryo media. Sex determination is not possible at this stage of development. All drug screening experiments were conducted in an unbiased manner by investigators blinded to the test compounds and all files coded for post hoc analysis. The 96-well plate containing larvae was then placed inside a DanioVision box where they were allowed to acclimate (20 min; room temperature). EthoVision XT software (DanioVision, Noldus Information Technology) was used to obtain locomotion plots (10 min in duration). Seizure scoring was performed, as described ([Baraban et al., 2005]). All locomotion plots were analysed for distance travelled (in millimetres) and mean velocity (in millimetres per second). After 90 min of drug exposure larvae were examined for toxic side-effects. Compounds that decreased or stopped the larva heartbeat, or reduced or eliminated the escape response when touched, were considered toxic.
For behaviour analysis, the threshold for a change in mean swim velocity ≥40% is considered significant (>1.5× SD of 250 control treated scn1lab). Unless otherwise indicated, all data in this manuscript are presented as the mean ± standard error of the mean. […] Statistically significant differences are indicated with asterisks (*P < 0.05; **P < 0.01; ***P < 0.001). […]

[1] = test system: scn1lab mutant zebrafish larvae; assay: toxicity check of larvae after 90 min drug exposure (heartbeat, escape response); format: in vivo, Danio rerio; conditions: 90 min exposure; for toxicity in initial analogue screening: 100 µM or 250 µM
Description: as §1, with “Seizure scoring was performed, as described ([Baraban et al., 2005]).” left out

human 5-HT2AR = human 5-HT2AR (Homo sapiens, UniProt P28223); assay: radioligand binding (NIMH PDSP)
Description: (§2) All in vitro binding assay and Ki data studies were performed by the US National Institute of Mental Health Psychoactive Drug Screening Program (NIMH PDSP). For these studies, drugs were screened against recombinant, stably expressed human 5-HT2AR, 5-HT2BR, 5-HT2CR and H1, as described at https://pdspdb.unc.edu/pdspWeb/ ([Besnard et al., 2012]).

human 5-HT2BR = human 5-HT2BR (Homo sapiens, UniProt P41595); assay: radioligand binding (NIMH PDSP); conditions: read-out: Ki 5-HT2BR
Description: as §2

human 5-HT2CR = biological target: T1, human 5-HT2CR (Homo sapiens, UniProt P28335); assay: radioligand binding (NIMH PDSP)
T1 sequence (P28335 33-458): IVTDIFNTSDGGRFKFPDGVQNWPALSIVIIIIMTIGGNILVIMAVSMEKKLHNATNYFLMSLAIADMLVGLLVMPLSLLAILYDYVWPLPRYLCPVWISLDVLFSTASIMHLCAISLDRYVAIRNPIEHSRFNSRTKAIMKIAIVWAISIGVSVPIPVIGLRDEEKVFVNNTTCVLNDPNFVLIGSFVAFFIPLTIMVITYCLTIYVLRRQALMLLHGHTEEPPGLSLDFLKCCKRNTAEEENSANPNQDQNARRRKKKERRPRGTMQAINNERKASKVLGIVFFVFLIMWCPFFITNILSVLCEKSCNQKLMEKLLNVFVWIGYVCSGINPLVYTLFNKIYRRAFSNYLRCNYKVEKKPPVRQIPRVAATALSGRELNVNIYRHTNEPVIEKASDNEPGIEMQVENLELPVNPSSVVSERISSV
Description: as §2

human H1 = human H1 (Homo sapiens, UniProt P35367); assay: radioligand binding (NIMH PDSP); conditions: read-out: Ki H1
Description: as §2

[2] = read-out: % change in velocity, individual larva 1 (heat map)
[3] = read-out: % change in velocity, individual larva 2 (heat map)
[4] = read-out: % change in velocity, individual larva 3 (heat map)
[5] = read-out: % change in velocity, individual larva 4 (heat map)
[6] = read-out: % change in velocity, individual larva 5 (heat map)
[7] = read-out: % change in velocity, individual larva 6 (heat map)
[8] = read-out: mean velocity change from six fish, Trial 1
[9] = read-out: mean velocity change from six fish, Trial 2
[10] = recombinant, stably expressed human receptor, clemizole analogues

Sequence of human H1 (P35367 whole entry): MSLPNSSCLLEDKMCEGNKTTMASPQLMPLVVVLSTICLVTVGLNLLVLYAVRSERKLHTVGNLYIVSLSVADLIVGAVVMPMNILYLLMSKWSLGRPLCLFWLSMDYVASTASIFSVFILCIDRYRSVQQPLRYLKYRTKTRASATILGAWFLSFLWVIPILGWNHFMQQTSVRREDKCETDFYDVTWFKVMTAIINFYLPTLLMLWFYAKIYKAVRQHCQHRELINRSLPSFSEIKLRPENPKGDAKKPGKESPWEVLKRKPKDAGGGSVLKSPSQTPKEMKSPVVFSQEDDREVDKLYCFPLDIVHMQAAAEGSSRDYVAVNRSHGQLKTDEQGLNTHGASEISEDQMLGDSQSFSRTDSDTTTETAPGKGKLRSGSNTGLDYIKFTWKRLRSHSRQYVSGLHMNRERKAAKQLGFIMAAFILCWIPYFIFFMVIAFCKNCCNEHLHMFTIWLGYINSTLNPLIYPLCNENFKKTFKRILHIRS
Sequence of human 5-HT2BR (P41595 whole entry): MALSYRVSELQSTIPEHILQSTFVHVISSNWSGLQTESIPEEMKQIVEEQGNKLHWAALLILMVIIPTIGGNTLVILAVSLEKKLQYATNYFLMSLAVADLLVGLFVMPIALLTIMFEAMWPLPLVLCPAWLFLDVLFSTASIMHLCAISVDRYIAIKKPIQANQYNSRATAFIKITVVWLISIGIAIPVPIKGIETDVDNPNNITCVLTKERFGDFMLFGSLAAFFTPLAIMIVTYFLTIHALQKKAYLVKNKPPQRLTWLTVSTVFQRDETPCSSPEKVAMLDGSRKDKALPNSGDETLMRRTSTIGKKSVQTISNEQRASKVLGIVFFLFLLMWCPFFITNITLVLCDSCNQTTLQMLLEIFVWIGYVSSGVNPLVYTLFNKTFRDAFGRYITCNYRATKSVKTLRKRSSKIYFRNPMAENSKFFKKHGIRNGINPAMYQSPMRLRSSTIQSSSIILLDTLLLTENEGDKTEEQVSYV
Sequence of human 5-HT2AR (P28223 whole entry): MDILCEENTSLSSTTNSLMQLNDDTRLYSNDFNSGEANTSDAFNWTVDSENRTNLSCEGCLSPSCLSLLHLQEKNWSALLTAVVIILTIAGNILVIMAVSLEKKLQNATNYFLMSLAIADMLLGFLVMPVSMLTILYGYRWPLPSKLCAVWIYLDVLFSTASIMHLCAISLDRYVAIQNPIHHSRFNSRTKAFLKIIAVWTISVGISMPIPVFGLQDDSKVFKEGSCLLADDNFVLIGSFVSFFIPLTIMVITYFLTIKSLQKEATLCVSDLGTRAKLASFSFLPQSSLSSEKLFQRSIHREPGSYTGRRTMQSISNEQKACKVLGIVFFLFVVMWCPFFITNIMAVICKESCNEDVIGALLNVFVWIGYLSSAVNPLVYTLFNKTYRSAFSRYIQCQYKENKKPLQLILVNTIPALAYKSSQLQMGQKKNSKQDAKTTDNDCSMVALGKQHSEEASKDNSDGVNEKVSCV

Work on `CCN(CC)Cc1nc2ccccc2n1Cc1ccc(Cl)cc1` [Compound 24] yielded a change in vivo at 100 µM (scn1lab mutant zebrafish; [2]) of 67.6%, a change in vivo at 250 µM (scn1lab mutant zebrafish; [2]) of -100% and a change in vivo at 100 µM (scn1lab mutant zebrafish; [3]) of 330%. It also gave a change in vivo at 250 µM (scn1lab mutant zebrafish; [3]) of -100%, a change in vivo at 100 µM (scn1lab mutant zebrafish; [4]) of -70.1% and a change in vivo at 250 µM (scn1lab mutant zebrafish; [4]) of -90%. It also gave a change in vivo at 100 µM (scn1lab mutant zebrafish; [5]) of -28%, a change in vivo at 250 µM (scn1lab mutant zebrafish; [5]) of -100% and a change in vivo at 100 µM (scn1lab mutant zebrafish; [6]) of -30.1%. It also gave a change in vivo at 250 µM (scn1lab mutant zebrafish; [6]) of -100%, a change in vivo at 100 µM (scn1lab mutant zebrafish; [7]) of -3.9% and a change in vivo at 250 µM (scn1lab mutant zebrafish; [7]) of -100%. The change in vivo at 100 µM (scn1lab mutant zebrafish; [8]) was 3.5%, the change in vivo at 250 µM (scn1lab mutant zebrafish; [8]) was -98.7% and the change in vivo at 100 µM (scn1lab mutant zebrafish; [9]) was 3.5%. The “toxicity in initial analogue screening” value [1] was “toxic”, the Ki (human 5-HT2AR) was 1260 nM and the Ki (human 5-HT2BR) was 115 nM. The Ki (human 5-HT2CR) was 1410 nM and the Ki (human H1) was 3.7 nM.

Molecule `c1ccc(Cn2c(CN3CCCC3)nc3ccccc32)cc1` [Compound 3] has a Ki (human 5-HT2AR; [10]) of 327 nM, a Ki (human 5-HT2BR; [10]) of 83 nM and a Ki (human 5-HT2CR; [10]) of 292 nM. The Ki (human H1; [10]) was 4.8 nM.

`Cl.Clc1cccc(N2CCNCC2)c1` [m-CPP, reference compound] was tested, and the “effect on seizure-like swim behaviour, commercially available compounds” value (scn1lab mutant zebrafish) was “biphasic response”.

In the case of `Clc1ccc(Cn2c(CC3CCCC3)nc3ccccc32)cc1` [Compound 1], the change in vivo at 100 µM (scn1lab mutant zebrafish; [2]) is reported as -100%, the change in vivo at 250 µM (scn1lab mutant zebrafish; [2]) is reported as -100% and the change in vivo at 100 µM (scn1lab mutant zebrafish; [3]) is reported as -100%. For the same molecule, the change in vivo at 250 µM (scn1lab mutant zebrafish; [3]) was -60%, the change in vivo at 100 µM (scn1lab mutant zebrafish; [4]) was -100% and the change in vivo at 250 µM (scn1lab mutant zebrafish; [4]) was -100%. The change in vivo at 100 µM (scn1lab mutant zebrafish; [5]) was -100%, the change in vivo at 250 µM (scn1lab mutant zebrafish; [5]) was -100% and the change in vivo at 100 µM (scn1lab mutant zebrafish; [6]) was -100%. The change in vivo at 250 µM (scn1lab mutant zebrafish; [6]) was -100%, the change in vivo at 100 µM (scn1lab mutant zebrafish; [7]) was -100% and the change in vivo at 250 µM (scn1lab mutant zebrafish; [7]) was -100%. It also gave a change in vivo at 100 µM (scn1lab mutant zebrafish; [8]) of -100%, a change in vivo at 250 µM (scn1lab mutant zebrafish; [8]) of -96.2% and a change in vivo at 100 µM (scn1lab mutant zebrafish; [9]) of -100%. The “toxicity in initial analogue screening” value [1] was “toxic”, the Ki (human 5-HT2BR) was 501 nM and the Ki (human 5-HT2CR) was 2730 nM.

With `CN1CCc2cccc3c2[C@H]1Cc1ccc(O)c(O)c1-3` [apomorphine, (−)-Apomorphine hydrochloride, reference compound] the “effect on seizure-like swim behaviour, commercially available compounds” value (scn1lab mutant zebrafish) was “significantly increased mean swim velocity”.

`Nc1ccc(Cn2c(CN3CCCC3)nc3ccccc32)cc1` [Compound 14] was tested, and the “effect on seizure-like swim behaviour, initial library screen” value (from here on “effect … initial library screen”) (scn1lab mutant zebrafish) was “no significant effect on swim behaviour”, the “effect on seizure-like swim behaviour, retest of independently synthesized compound” value (scn1lab mutant zebrafish) was “no significant effect on the swim behaviour” and the Ki (human 5-HT2AR; [10]) was greater than 10000 nM. It also gave a Ki (human 5-HT2BR; [10]) of 606 nM, a Ki (human 5-HT2CR; [10]) greater than 10000 nM and a Ki (human H1; [10]) of 27 nM.

In the case of `Fc1ccc(Cn2c(CN3CCCC3)nc3ccccc32)cc1` [Compound 7], the Ki (human 5-HT2AR; [10]) is reported as 15 nM, the Ki (human 5-HT2BR; [10]) is reported as 46 nM and the Ki (human 5-HT2CR; [10]) is reported as 345 nM. For the same molecule, the Ki (human H1; [10]) was 1 nM.

For `Clc1ccc(Cn2ccnc2CN2CCCC2)cc1` [Compound 9], the “effect … initial library screen” value (scn1lab mutant zebrafish) was “effective in suppressing”, the change in vivo at 100 µM (scn1lab mutant zebrafish; [2]) was -13.5% and the change in vivo at 250 µM (scn1lab mutant zebrafish; [2]) was -94%. It also gave a change in vivo at 100 µM (scn1lab mutant zebrafish; [3]) of -0.7%, a change in vivo at 250 µM (scn1lab mutant zebrafish; [3]) of -100% and a change in vivo at 100 µM (scn1lab mutant zebrafish; [4]) of -34.9%. For the same molecule, the change in vivo at 250 µM (scn1lab mutant zebrafish; [4]) was -22.5%, the change in vivo at 100 µM (scn1lab mutant zebrafish; [5]) was -57.3% and the change in vivo at 250 µM (scn1lab mutant zebrafish; [5]) was -100%. The change in vivo at 100 µM (scn1lab mutant zebrafish; [6]) was 34.4%, the change in vivo at 250 µM (scn1lab mutant zebrafish; [6]) was -38.8% and the change in vivo at 100 µM (scn1lab mutant zebrafish; [7]) was -33.2%. For the same molecule, the change in vivo at 250 µM (scn1lab mutant zebrafish; [7]) was -100%, the change in vivo at 100 µM (scn1lab mutant zebrafish; [8]) was -28.1% and the change in vivo at 250 µM (scn1lab mutant zebrafish; [8]) was -73.2%. For the same molecule, the change in vivo at 100 µM (scn1lab mutant zebrafish; [9]) was -28.1%, the change in vivo at 250 µM (scn1lab mutant zebrafish; [9]) was -100% and the “toxicity at 250 µM” value ([1]; 250 µM) was “toxic”. It also gave a Ki (human 5-HT2AR) greater than 10000 nM, a Ki (human 5-HT2BR) greater than 10000 nM and a Ki (human 5-HT2CR) of 447 nM. It also gave a Ki (human H1) of 29 nM.

With `CCCn1c(CN2CCCC2)nc2ccccc21.O=CO` [Compound 5] the “effect … initial library screen” value (scn1lab mutant zebrafish) was “no significant effect on swim behaviour”, the “effect on seizure-like swim behaviour, retest of independently synthesized compound” value (scn1lab mutant zebrafish) was “no significant effect on the swim behaviour” and the Ki (human 5-HT2AR; [10]) was greater than 10000 nM. For the same molecule, the Ki (human 5-HT2BR; [10]) was 219 nM, the Ki (human 5-HT2CR; [10]) was greater than 10000 nM and the Ki (human H1; [10]) was 362 nM.

Source: PMC6798786 (Brain Communications, 2019)
